Test results published in US10933044B2, “Marine organism-derived extract, compound, and medical composition having niche formation suppressing activity of leukemic stem cells” (WASEDA UNIVERSITY, priority 2016, dated 2021).
“Also recorded” adds a separate entry of the source.

Legend:
[1] = test system: MB-1 cells co-cultured with OP9 cells; assay: Apoptosis detection with NucView 488 Caspase-3 Assay Kit in co-culture of MB-1 cells and OP9 cells; format: cell-based, human; settings: for Apoptosis induction of MB-1 cells (%): NucView 488 positive cells
Procedure: (§1) To a 12-well plate, OP9 cells treated with MMC were seeded at a density of 1.6×10^5 cells per well. After culture was performed for one day, MB-1 cells were seeded at a density of 8.0×10^4 cells per well. After culture was performed for two days, Stelliferin A was added in a concentration of 0.4 μg/mL. After culture was performed for one day, imatinib was added in a concentration of 0.2 μM or 1.0 μM. After culture was performed for one day, apoptosis was detected in the manner described below.
Apoptosis was detected by use of NucView 488 Caspase-3 Assay Kit for Live Cells (Biotium, USA) or a fluorescent reagent JC-1 (Cayman Chemical, USA) which detects mitochondrial membrane potential difference.
In evaluation by NucView 488, 0.05% trypsin-EDTA was added to individual wells. After incubation for 4 minutes, the culture liquid was added. Aliquots were separately taken and then centrifuged (1,200 rpm, 4 minutes) to collect cells. Each of the suspensions of the cells collected was controlled so as to obtain a density of 1.0×10^6 cells per mL. Aliquots (200 μL) were separately taken from the suspensions. To the cells thus taken, 5 μL of NucView 488 substrate stock solution of NucView 488 Caspase-3 Assay Kit for Live Cells was added and incubated in the darkness at normal temperature for 20 minutes. Culture liquid (300 μL) was added and subjected to analysis by a cell sorter (Type SH-800, SONY Corporation, Tokyo). The ratio of green fluorescent positive cells per each well was calculated.

MB-1 cells [2] = assay: Apoptosis inducing action by imatinib alone in culture system of MB-1 cells alone (NucView 488); format: cell-based, human; settings: imatinib 0.2 μM or 1.0 μM, one day; compared to MB-1 cells co-cultured in the absence of Stelliferin A
Procedure: Apoptosis inducing action by imatinib alone in a culture system of MB-1 cells alone was evaluated.
From a co-culture system with OP9 cells, MB-1 cells were purified by a cell sorter and seeded to 12-well plates at a density of 2.0×10^5 cells per well, and then, imatinib was added in a concentration of 0.2 μM or 1.0 μM. After culture was performed for one day, apoptosis was detected in the manner described below.
Apoptosis was detected by use of NucView 488 Caspase-3 Assay Kit for Live Cells (Biotium, USA) in the same manner as in the apoptosis detection performed in the co-culture system of MB-1 cells and OP9 cells.

OP9 cells = assay: CA formation when OP9 cells exposed to Stelliferin A are co-cultured with unexposed MB-1 cells; format: cell-based, mouse; settings: OP9 cells exposed to 0.4 μg/mL Day 2 to Day 4, then unexposed MB-1 cells; compared to unexposed control
Procedure: On Day 1, OP9 cells were seeded in a culture medium in the same manner as above and incubated. On Day 2, Stelliferin A was added so as to be 0.4 μg/ml, and incubated. On Day 4, fresh MB-1 cells not exposed to Stelliferin A were seeded and co-cultured. On Day 6, whether CA was formed or not was examined. Also, for comparison, CA formation was examined in a control system where OP9 cells and MB-1 cells were co-cultured in the absence of Stelliferin A in accordance with the above schedule.

[3] = test system: MB-1 cells co-cultured with OP9 cells; assay: Stereoscopic positional relationship between mCherry OP9 cells and GFP MB-1 cells by confocal microscope; format: cell-based, human; settings: Stelliferin A 0.4 μg/mL, two days
Procedure: The effect of a Stelliferin compound on the stereoscopic positional relationship between OP9 cells (which serve as support cells in CA formation in the mouse mesenchymal cells) and MB-1 cells was examined by using OP9 cells and MB-1 cells to which fluorescent proteins were separately introduced.
To a 35-mm dish having a glass bottom, OP9 cells, which were treated with MMC and to which fluorescent protein mCherry was introduced, were seeded at a density of 4.0×10^5 cells. After culture was performed for one day, fluorescent protein GFP introduced MB-1 cells were seeded at a density of 2.0×10^5 cells. After culture was performed for two days, Stelliferin A was added in a concentration of 0.4 μg/mL. After culture was performed for two days, the stereoscopic positional relationship between the cells was photographed with a confocal microscope (Type IX81, Olympus Corporation), and examined.

[4] = test system: MB-1 cells co-cultured with OP9 cells; assay: CA reformation after Stelliferin A treatment of OP9/MB-1 co-culture and exchange of culture medium; format: cell-based, human; settings: Stelliferin A 0.4 μg/mL Day 4 to Day 6, fresh medium without it, examined Day 8
Procedure: (§2) On Day 1, OP9 cells were seeded in a culture medium in the same manner as above and incubated. On Day 2, MB-1 cells were seeded and co-cultured with the OP9 cells. On day 4, Stelliferin A was added so as to be 0.4 μg/mL and incubated.

[5] = test system: TF-1 cells co-cultured with OP9 cells; assay: Niche (CA) formation suppression in co-culture of TF-1 cells and OP9 cells; format: cell-based, human; settings: TF-1/OP9 co-culture; Stelliferin A at 0.4 μg/mL, two days
Procedure: In order to verify that the action of Stelliferin A to suppress niche formation by MB-1 cells is not specific to MB-1 cells, the actions of a fat-soluble fraction of S12111 and Stelliferin A against niche formation by TF-1 cells were evaluated in a co-culture system of TF-1 cells (which have leukemic stem-cell-like characteristics similarly to MB-1 cells) and OP9 cells.
The experiment was carried out basically in the same manner as employed in the evaluation with MB-1 cells mentioned above except that TF-1 cells (strain derived from human bone marrow erythroleukemia cells) were used in place of MB-1 cells. In evaluation of Stelliferin A, more specifically, evaluation of niche formation suppressive action of Stelliferin A in the co-culture system of TF-1 cells and OP9 cells, OP9 cells (8.0×10^4) treated with MMC were seeded in individual wells of a 24-well plate. After culture was performed for one day, TF-1 cells (4.0×10^4) were seeded. The culture liquid used herein was IMDM (Gibco) containing 10% inactivated FBS (Biowest SAS, France) and 1% P/S. After culture was performed for one day, medium was exchanged. After culture was performed for further one day, Stelliferin A was added in a concentration of 0.4 μg/mL. After culture was performed for two days, the presence or absence of CA formation was observed by a microscope.

[6] = test system: MB-1 cells co-cultured with OP9 cells; assay: Screening for cobblestone area (CA) formation inhibitory activity in co-culture of OP9 cells and MB-1 cells; format: cell-based, human; settings: OP9/MB-1 co-culture, 48 hours incubation with sample; tested at 10, 2, 0.4 and 0.08 μg/mL; microscopic observation
Procedure: In individual wells of a 96-well plate, OP9 cells (9.0×10^3) treated with 3 μg/mL mitomycin C (Sigma-Aldrich Co. LLC., USA) for 3 hours (37° C., 5% CO2) were seeded and incubated at 37° C. under 5% CO2. The culture liquid used herein was α MEM (Gibco) containing 20% inactivated FBS (MP Biomedicals, LLC., USA) and 1% penicillin-streptomycin (P/S, Gibco, Thermo Fisher Scientific Inc., USA). The following day, to the individual wells having OP9 cells seeded therein, MB-1 cells (2.5×10^3) were seeded. In the co-culture of the OP9 cells and MB-1 cells, the culture liquid used herein was α MEM containing 10% inactivated FBS (Biowest SAS, France), 1% P/S, 1% non-essential amino acids (NEAA, Invitrogen, Thermo Fisher Scientific Inc.) and 10 μM β-mercaptoethanol (Gibco). Forty-eight hours later, a Porifera sample (2 μL) dissolved in DMSO was added and diluted five times to prepare four solutions different in concentration (10 μg/mL, 2 μg/mL, 0.4 μg/mL and 0.08 μg/mL). After incubation was performed for 48 hours at 37° C. under 5% CO2, fixation was performed with 4% paraformaldehyde (Wako Pure Chemical Industries, Ltd.), nuclear-staining was performed with Hoechst 33342 (Dojindo Laboratories, Kumamoto) and observation was made with a microscope (Type IX71, Olympus Corporation Ltd., Tokyo). […]

[7] = test system: MB-1 cells co-cultured with OP9 cells; assay: Apoptosis detection with JC-1 mitochondrial membrane potential reagent in co-culture of MB-1 cells and OP9 cells; format: cell-based, human
Procedure: The effect of the Stelliferin compound on CA formed by co-culture of OP9 cells (serving as support cells for the CA formation in the mouse mesenchymal cells) and MB-1 cells was examined by apoptosis detection reagent JC-1.
as §1, with “24-well” for “12-well”, “8.0×10^4” for “1.6×10^5”, “4.0×10^4” for “8.0×10^4”, “of” for “of 0.2 μM or”
Apoptosis was detected by JC-1 Mitochondrial Membrane Potential Assay Kit. To each well, 50 μL of JC-1 Reagent of JC-1 Mitochondrial Membrane Potential Assay Kit was added and incubation was carried out for 20 minutes. Thereafter, 0.05% trypsin-EDTA was added to each well and incubation was carried out for 4 minutes. After a culture liquid was added, aliquots were separately taken and then centrifuged (1,200 rpm, 4 minutes) to collect cells. The collected cells were separately suspended in 300 μL of a culture liquid and analyzed by a cell sorter (Type SH-800, SONY Corporation, Tokyo). The ratios of red fluorescent negative cells in individual wells were calculated.

MB-1 cells [8] = assay: CA reformation when free MB-1 cells from treated co-culture are co-cultured with fresh OP9 cells; format: cell-based, human; settings: Stelliferin A 0.4 μg/mL Day 4 to Day 6, then co-culture in the absence of Stelliferin A, examined Day 8
Procedure: as §2

For `Cc1ccc(NC(=O)c2ccc(CN3CCN(C)CC3)cc2)cc1Nc1nccc(-c2cccnc2)n1` [Imatinib, imatinib, reference compound], the “Apoptosis induction of MB-1 cells (%)” value ([1]; imatinib 0.2 μM, Stelliferin A absent) was 8.07%, the “Apoptosis induction of MB-1 cells (%)” value ([1]; imatinib 1.0 μM, Stelliferin A absent) was 12.14% and the “Sensitivity of MB-1 cells cultured alone to imatinib (apoptosis)” value (MB-1 cells [2]) was “high sensitivity”.

In the case of Stelliferin A, the “Number of CAs formed with OP9 cells exposed to Stelliferin A” value (OP9 cells) is reported as “the number of CAs formed was low”, the “Position of MB-1 cells relative to OP9 cell layer” value [3] is reported as “MB-1 cells were exposed to the upper side of the OP9 cell layer” and the “CA reformation after removal of Stelliferin A” value [4] is reported as “CA was not reformed”. For the same compound, the “Niche formation by TF-1 cells” value [5] was “suppressed niche formation by TF-1 cells”, the “Apoptosis induction of MB-1 cells (%)” value ([1]; Stelliferin A present at 0.4 μg/mL plus imatinib 0.2 μM) was 22.39% and the “Apoptosis induction of MB-1 cells (%)” value ([1]; Stelliferin A present at 0.4 μg/mL plus imatinib 1.0 μM) was 44.63%. For the same compound, the “Apoptosis induction of MB-1 cells (%)” value ([1]; Stelliferin A present at 0.4 μg/mL, imatinib absent) was 16.03%, the “Ratio of MB-1 cells which induced apoptosis / NucView peak representing caspase 3 activity” value ([1]; presence of Stelliferin A with imatinib 0.2 μM and 1.0 μM compared to absence of Stelliferin A) was “increased depending on each of the concentrations of Stelliferin A and imatinib; also recorded: statistically significantly (Student t test, p<0.05) increased” and the “CA formation inhibitory activity” value [6] was 0.08 µg/mL. For the same compound, the “Apoptosis induction (JC-1, mitochondrial membrane potential difference disappeared)” value ([7]; co-presence of Stelliferin A 0.4 μg/mL and imatinib 1.0 μM) was “apoptosis was induced”, the “Apoptosis induction (JC-1) when dose of imatinib was changed” value ([7]; in the presence of Stelliferin A, imatinib dose varied) was “apoptosis was also induced in the dose-dependent manner of imatinib” and the “CA reformation of treated free MB-1 cells with fresh OP9 cells” value (MB-1 cells [8]) was “CA was reformed”.

With Stelliferin B the “CA formation inhibitory activity” value [6] was 0.08 µg/mL.
